These results are taken from patent publication US10494332B2, “Protein tyrosine phosphatases or SHP2 inhibitors and uses thereof” (Indiana University Research and Technology Corporation, priority 2015, dated 2019).

“And” between values parts separate entries of the source, which are not always exact repeats. Equal entries are not always repeated. Where two headings read alike, the source gives them in different places.

Assay [1] addresses T1, CD45 (Homo sapiens, UniProt P08575).
T1 sequence (P08575 26-1306): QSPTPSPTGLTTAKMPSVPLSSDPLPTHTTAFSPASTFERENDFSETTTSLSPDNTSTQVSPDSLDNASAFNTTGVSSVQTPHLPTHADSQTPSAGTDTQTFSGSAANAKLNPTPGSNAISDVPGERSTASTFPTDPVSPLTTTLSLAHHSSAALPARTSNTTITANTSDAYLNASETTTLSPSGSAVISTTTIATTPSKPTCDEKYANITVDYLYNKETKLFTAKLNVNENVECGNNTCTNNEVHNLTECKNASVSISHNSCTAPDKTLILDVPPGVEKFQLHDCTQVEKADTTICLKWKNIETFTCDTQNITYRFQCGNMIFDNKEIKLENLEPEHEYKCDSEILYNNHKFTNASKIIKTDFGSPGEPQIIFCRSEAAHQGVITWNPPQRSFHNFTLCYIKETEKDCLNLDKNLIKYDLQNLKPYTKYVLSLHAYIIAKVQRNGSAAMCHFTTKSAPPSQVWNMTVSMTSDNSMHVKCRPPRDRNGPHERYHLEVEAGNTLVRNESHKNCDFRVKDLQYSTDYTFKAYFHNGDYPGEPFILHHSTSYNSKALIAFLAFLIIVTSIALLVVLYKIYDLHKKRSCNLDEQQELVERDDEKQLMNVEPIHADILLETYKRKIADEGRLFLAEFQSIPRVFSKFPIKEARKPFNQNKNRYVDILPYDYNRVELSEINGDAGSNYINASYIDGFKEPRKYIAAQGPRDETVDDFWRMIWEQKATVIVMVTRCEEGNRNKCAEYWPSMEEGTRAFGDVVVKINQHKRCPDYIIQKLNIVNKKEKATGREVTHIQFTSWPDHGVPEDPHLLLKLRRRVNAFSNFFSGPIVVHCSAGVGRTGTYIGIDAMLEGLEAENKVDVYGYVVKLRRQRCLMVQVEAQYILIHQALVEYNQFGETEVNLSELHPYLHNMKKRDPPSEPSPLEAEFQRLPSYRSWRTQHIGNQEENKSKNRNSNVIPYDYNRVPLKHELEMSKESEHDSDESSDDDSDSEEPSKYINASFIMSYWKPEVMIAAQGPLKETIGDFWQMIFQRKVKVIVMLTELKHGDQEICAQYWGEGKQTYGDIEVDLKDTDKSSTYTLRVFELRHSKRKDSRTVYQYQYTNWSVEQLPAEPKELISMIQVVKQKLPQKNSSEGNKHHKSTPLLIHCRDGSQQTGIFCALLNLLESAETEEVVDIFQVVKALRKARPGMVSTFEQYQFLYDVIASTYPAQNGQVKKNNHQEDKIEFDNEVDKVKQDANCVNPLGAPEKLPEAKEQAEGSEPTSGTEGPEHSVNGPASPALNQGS
Briefly: PTP inhibition assay (pNPP). It is filed as biochemical. Particulars: pNPP at Km, pH 7.0, 25° C.

The target of assay [2] is FAP1 (Homo sapiens, UniProt Q12923). Briefly: PTP inhibition assay (pNPP). Format: biochemical. Particulars: pNPP at Km, pH 7.0, 25° C.; read-out: IC50 FAP1.
For assay [3], the target named is TbPTP1 (Trypanosoma brucei brucei, UniProt Q38AT7). In words: PTP inhibition assay (pNPP). Particulars: pNPP at Km, pH 7.0, 25° C.; read-out: IC50 TbPTP1. Format: biochemical.
TbPTP1, sequence (Q38AT7 entry or part of it): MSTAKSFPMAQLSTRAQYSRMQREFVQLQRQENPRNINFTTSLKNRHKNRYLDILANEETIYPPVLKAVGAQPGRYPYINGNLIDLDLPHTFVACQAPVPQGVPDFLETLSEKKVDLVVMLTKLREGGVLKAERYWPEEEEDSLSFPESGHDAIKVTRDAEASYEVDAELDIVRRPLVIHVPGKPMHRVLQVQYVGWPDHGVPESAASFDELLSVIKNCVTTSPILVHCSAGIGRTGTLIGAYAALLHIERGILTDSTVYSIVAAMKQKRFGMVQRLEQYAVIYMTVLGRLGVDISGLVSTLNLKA
The target of assay [4] is VHR (Homo sapiens, UniProt P51452). Briefly: PTP inhibition assay (pNPP). It is filed as biochemical. The note with it: pNPP at Km, pH 7.0, 25° C.
VHR, sequence (P51452 whole entry): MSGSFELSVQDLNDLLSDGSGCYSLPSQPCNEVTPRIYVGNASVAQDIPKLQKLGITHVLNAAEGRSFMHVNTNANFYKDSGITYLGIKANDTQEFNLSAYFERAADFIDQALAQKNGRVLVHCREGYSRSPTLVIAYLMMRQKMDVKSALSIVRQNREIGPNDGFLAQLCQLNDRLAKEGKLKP
Assay [5] addresses LAR (Homo sapiens, UniProt P10586). In words: PTP inhibition assay (pNPP). It is filed as biochemical.
Assay [6] concerns the target T2, LYP (Homo sapiens, UniProt Q9Y2R2).
T2 sequence (Q9Y2R2 1-807): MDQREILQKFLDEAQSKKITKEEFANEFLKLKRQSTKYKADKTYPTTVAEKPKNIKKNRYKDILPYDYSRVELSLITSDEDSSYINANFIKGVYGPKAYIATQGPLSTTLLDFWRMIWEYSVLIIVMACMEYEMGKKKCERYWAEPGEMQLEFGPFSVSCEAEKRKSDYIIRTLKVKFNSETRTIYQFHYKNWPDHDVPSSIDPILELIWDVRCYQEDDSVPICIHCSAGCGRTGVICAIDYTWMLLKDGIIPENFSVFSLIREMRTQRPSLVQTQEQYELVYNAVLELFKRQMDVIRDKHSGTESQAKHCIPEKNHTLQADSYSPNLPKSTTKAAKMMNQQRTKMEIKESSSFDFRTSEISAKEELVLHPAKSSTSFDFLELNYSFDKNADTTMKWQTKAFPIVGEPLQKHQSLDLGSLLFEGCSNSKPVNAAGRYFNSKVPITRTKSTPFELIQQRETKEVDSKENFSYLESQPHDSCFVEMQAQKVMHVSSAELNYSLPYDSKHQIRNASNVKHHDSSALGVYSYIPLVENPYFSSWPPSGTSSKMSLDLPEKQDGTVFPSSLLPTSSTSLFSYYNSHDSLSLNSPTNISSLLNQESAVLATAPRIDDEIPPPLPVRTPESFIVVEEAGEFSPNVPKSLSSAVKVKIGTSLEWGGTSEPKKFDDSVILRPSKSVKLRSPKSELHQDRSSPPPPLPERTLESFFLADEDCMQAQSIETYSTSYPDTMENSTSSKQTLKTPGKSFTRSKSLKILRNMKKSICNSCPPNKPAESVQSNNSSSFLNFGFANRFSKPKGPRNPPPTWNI
In words: PTP inhibition assay (pNPP). Particulars: pNPP at Km, pH 7.0, 25° C. Format: biochemical.

Assay [7] deals with PTPσ (Homo sapiens, UniProt Q13332). In words: PTP inhibition assay (pNPP). Format: biochemical.
PTPσ, sequence (Q13332 30-1948): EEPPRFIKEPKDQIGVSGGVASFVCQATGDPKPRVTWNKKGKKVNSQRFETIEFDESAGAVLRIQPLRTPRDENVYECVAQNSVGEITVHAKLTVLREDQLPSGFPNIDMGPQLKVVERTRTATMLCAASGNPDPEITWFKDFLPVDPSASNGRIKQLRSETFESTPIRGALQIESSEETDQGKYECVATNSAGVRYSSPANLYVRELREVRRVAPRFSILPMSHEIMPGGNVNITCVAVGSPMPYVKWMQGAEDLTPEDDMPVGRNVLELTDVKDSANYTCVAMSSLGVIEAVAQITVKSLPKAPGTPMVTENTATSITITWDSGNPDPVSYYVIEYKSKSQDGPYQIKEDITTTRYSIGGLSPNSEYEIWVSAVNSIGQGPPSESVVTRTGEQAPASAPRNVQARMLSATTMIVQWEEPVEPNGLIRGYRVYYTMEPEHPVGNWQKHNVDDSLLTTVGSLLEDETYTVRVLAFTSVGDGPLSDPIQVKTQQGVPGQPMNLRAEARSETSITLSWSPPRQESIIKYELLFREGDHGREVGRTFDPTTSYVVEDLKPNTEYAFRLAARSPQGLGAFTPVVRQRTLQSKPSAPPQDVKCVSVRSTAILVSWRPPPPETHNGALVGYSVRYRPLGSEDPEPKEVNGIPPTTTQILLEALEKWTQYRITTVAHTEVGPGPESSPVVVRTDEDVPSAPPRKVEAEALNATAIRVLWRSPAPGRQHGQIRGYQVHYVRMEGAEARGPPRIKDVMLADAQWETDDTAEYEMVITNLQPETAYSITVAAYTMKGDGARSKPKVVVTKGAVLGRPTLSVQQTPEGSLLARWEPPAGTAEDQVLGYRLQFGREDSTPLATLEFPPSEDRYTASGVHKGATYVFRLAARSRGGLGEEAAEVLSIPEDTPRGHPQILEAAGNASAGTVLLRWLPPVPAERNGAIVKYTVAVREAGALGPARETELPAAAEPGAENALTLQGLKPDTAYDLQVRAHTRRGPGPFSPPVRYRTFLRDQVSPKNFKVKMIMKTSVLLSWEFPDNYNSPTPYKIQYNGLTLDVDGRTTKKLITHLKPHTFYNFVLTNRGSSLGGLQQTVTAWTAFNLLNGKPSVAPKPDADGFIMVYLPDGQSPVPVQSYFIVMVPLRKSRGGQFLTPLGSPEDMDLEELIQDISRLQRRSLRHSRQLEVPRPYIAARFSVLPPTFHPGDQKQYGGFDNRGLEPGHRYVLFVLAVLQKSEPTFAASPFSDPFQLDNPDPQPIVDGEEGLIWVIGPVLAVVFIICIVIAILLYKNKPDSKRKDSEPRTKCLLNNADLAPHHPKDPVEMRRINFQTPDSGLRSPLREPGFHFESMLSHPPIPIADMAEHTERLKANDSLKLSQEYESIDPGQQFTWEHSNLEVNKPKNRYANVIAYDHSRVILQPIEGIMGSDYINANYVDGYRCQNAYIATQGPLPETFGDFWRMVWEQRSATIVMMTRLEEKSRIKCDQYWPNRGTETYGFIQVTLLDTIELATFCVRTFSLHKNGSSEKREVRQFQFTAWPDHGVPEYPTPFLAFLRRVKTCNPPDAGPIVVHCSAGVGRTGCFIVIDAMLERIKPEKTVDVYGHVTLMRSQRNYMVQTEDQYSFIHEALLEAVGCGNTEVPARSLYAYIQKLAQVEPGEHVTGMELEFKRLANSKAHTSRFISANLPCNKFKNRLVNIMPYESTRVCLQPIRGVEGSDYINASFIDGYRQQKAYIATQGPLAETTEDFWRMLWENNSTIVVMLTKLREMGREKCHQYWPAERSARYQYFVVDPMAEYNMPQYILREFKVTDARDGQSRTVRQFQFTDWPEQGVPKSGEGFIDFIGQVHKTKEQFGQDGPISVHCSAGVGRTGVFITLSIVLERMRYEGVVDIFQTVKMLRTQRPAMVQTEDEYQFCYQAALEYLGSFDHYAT
For assay [8], the target named is T3, TcPTP (Homo sapiens, UniProt P17706).
T3 sequence (P17706 1-415): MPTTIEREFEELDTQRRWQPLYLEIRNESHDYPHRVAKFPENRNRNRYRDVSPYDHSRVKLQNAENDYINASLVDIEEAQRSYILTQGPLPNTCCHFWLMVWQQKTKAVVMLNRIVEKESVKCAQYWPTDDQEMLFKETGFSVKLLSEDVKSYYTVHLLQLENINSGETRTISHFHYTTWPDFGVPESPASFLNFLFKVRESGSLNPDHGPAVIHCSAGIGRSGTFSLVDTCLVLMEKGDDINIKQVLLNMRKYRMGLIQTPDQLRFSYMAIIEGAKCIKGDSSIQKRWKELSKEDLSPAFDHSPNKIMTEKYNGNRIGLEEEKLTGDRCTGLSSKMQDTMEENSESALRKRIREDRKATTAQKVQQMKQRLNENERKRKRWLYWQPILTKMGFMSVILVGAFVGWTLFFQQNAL
In words: PTP inhibition assay (pNPP). Format: biochemical. Particulars: pNPP at Km, pH 7.0, 25° C.; read-out: IC50 TcPTP.

Assay [9] deals with mPTPA (Mycobacterium tuberculosis, UniProt P9WIA1). Briefly: biochemical. The note with it: IC50 mPTPA.
mPTPA, sequence (P9WIA1 whole entry): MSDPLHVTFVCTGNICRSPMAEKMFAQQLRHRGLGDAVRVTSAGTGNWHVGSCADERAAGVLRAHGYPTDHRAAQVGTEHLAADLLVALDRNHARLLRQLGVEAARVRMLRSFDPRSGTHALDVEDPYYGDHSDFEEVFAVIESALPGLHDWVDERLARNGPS

LAR, sequence (P10586 30-1907): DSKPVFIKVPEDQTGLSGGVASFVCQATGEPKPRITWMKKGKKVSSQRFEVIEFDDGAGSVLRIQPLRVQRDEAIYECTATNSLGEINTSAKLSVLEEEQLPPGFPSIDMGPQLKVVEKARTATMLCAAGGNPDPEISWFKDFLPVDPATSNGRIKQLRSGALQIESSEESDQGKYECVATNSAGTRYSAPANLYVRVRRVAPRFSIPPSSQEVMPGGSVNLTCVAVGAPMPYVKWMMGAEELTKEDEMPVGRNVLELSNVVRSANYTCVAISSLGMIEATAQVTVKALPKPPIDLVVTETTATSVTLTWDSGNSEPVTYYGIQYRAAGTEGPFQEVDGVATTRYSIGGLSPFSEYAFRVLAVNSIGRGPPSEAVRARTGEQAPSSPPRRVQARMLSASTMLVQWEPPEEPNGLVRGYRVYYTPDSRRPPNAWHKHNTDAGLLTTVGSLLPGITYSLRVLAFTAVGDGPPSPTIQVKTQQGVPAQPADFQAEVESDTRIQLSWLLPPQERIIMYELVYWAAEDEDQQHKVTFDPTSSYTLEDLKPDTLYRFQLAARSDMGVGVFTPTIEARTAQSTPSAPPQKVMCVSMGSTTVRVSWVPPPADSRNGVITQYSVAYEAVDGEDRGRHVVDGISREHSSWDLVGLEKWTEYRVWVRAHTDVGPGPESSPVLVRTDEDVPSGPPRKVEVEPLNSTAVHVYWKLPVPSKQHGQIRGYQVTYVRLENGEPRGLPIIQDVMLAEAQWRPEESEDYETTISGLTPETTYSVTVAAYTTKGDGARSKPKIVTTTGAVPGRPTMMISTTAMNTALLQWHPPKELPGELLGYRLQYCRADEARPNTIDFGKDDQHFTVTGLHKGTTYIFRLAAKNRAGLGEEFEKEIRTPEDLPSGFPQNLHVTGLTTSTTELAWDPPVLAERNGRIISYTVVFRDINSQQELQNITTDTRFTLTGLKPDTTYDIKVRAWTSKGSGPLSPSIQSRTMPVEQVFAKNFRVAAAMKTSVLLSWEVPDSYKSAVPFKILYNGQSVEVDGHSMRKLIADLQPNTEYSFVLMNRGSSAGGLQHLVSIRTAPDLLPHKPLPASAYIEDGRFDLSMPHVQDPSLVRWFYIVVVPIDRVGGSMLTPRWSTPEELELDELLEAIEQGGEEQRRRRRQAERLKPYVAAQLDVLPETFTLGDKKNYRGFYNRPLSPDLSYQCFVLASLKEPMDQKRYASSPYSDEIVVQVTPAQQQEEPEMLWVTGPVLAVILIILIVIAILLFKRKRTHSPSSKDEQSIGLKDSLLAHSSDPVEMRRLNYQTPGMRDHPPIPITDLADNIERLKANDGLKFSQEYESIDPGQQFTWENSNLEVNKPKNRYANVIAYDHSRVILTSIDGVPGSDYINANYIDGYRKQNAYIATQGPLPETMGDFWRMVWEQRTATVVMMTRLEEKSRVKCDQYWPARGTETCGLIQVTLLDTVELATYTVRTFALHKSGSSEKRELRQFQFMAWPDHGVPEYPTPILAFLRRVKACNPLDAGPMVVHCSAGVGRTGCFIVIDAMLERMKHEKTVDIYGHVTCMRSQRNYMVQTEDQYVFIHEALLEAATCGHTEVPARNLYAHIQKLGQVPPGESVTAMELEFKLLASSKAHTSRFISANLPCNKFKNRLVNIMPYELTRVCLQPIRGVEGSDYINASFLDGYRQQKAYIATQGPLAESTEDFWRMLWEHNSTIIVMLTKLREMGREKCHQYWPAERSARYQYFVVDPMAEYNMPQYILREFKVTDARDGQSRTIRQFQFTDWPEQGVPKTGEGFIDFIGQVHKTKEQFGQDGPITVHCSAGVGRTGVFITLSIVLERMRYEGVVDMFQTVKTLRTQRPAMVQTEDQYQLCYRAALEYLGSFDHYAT

What is called IC50 is the concentration that inhibits the measured activity by half. Take `O=C(Nc1cnc2ccccc2c1)C(c1ccccc1)S(=O)(=O)O` (stereo not drawn) [Compound L319M88]: the IC50 in [1], in [2], in [3], in assay [4], in assay [5] and in assay [6] was more than 200 µM in each case. For the same molecule, the figures for the IC50 in [7], in assay [8] and in assay [9] were more than 200 µM, more than 200 µM and 0.143 µM, respectively.

For the molecule `O=C(Nc1nc2ccccc2s1)C(c1ccccc1)S(=O)(=O)O` (stereo not drawn) [Compound L319N15], the IC50 in [1] was > 200 µM and 180 µM; in [2], 34 µM; in [3] it was more than 200 µM; in assay [4], more than 200 µM; in assay [5], more than 200 µM; in assay [6], > 200 µM and 190 µM. For the same molecule, the IC50 in [7] was more than 200 µM; in [8], more than 200 µM; in assay [9], 0.194 µM.

As to `O=C(C(c1ccccc1)S(=O)(=O)O)N1CCC(Cc2ccccc2)CC1` (stereo not drawn) [Compound L319N46], the 50% inhibitory concentration (IC50) in [1], in assay [2], in [3], in assay [4], in assay [5] and in [6] was more than 200 µM each time. For the same molecule, the IC50 in assay [7] (read-out: IC50 PTPσ), in assay [8] and in assay [9] was more than 200 µM each time.

With `O=C(C(c1ccccc1)S(=O)(=O)O)N1CCC(c2ccc(Cl)c(Cl)c2)CC1` (stereo not drawn) [Compound L319N47], the IC50 was 140 µM in assay [1]; 21 µM in assay [2]; 38 µM in assay [3]; 99 µM in assay [4]; more than 200 µM in assay [5]; 42 µM in [6]. The IC50 is more than 200 µM in [7] (read-out: IC50 PTPσ), 160 µM in assay [8] and 11.3 µM in assay [9].

On to `O=C(C(c1ccccc1)S(=O)(=O)O)N1CCCC2CCCCC21` (stereo not drawn) [Compound L319N53], for which the IC50 in assay [1] was more than 200 µM; in assay [2], 76 µM; in [3] it was more than 200 µM; in [4], more than 200 µM; in assay [5], more than 200 µM; in [6] it was more than 200 µM. For the same molecule, the IC50 in [7] (read-out: IC50 PTPσ), in [8] and in assay [9] was more than 200 µM in each case.

Regarding `O=C(CS(=O)(=O)O)Nc1nc2ccccc2s1` [Compound L335N15], the 50% inhibitory concentration (IC50) in assay [1], in [2], in [3], in [4], in assay [5] and in assay [6] was more than 100 µM in each case. Further, the IC50 in assay [7] (read-out: IC50 PTPσ) was more than 100 µM; in assay [8], more than 100 µM; in [9], 0.263 µM.
